In patent US6667387B1, “HCV core peptides” (priority 1992, dated 2003):
Ends that are not written are not given here.

Assays:
Assay type in all cases: binding, human
[1] = test system: antibodies in antisera from HIV-1 infected persons; assay: ELISA with HIV-1 antibody-positive sera (biotinylated peptides on streptavidin- or avidin-coated plates, unbiotinylated peptides coated directly); details: for number borderline / number negative / number positive / percent borderline / percent negative / percent positive: Table 16; for optical density (450 nm): Table 2
Method: (§1) Where peptides were to be coated directly, stock solutions of the peptides were diluted in sodium carbonate buffer, pH 9.6 and used to coat polystyrene microtiter plates at a peptide concentration of 2 to 5 micrograms per milliliter for 1 hour at 37° C.
(§2) In cases where biotinylated peptides were to be evaluated, plates were first coated with streptavidin in sodium carbonate buffer, pH 9.6 at a concentration of 3 micrograms per milliliter for 1 hour at 37° C. The plates were then washed to remove excess, unbound protein. A working solution of the biotinylated peptide at 1 microgram per milliliter in sodium carbonate buffer was then added to the wells of the microtiter plate and incubated for 1 hours at 37° C.
(§3) Once the plates had been coated with antigen, any remaining free binding sites on the plastic were blocked with casein. After washing, a dilution of the appropriate antisera, usually 1:100, was added to the wells of the plates and incubated for 1 hour at 37° C.
(§4) After washing to remove unbound material, specific antibody binding was detected by incubating the plates with goat anti-human immunoglobulin antibodies conjugated to the enzyme horseradish peroxidase. Following removal of unbound conjugate by washing, a solution containing H2O2 and 3,3′,5,5′-tetramethylbenzidine was added.
(§5) Reactions were stopped after a suitable interval by addition of sulfuric acid. […] Absorbance measurements were made at a wavelength of 450 nanometers and all data are expressed as an optical density value at this wavelength.
Experiments were performed to evaluate antibody recognition of short, 10 amino acid-long, N-acetylated peptides corresponding to other contained within the transmembrane proteins of HIV-1 and HIV-2. […] The peptides used for the comparison were as follows:
Antibody binding to these peptides was compared to antibody binding to the unibiotinylated peptides which were coated directly onto microtiter plates.
In order to evaluate antibody recognition of these two peptides, the peptides were bound individually to streptavidin-coated microtiter plates and tested using a panel of antisera from HIV-1 seropositive donors.
(§6) To determine how well biotinylated peptides would function in a mixture when bound to streptavidin- or avidin-coated plates, two mixtures were made of the N-terminally biotinylated versions of the HIV-1 peptides TM-HIV-1 (hereabove referred to as 1a.1) and V3-nm (hereabove referred to as 1b.4), the HIV-2 peptide TM-HIV-2 (hereabove referred to as 2a), and the hepatitis C virus peptides II, IX, and XVIII. Mixture A contained each of the six biotinylated peptides at a concentration of 1 microgram per milliliter (6 micrograms per milliliter peptide, total) while in mixture B, each peptide was present at a concentration of 0.1 microgram per milliliter (0.6 microgram per milliliter peptide, total). The individual peptides were coated at a concentration of 1 microgram per milliliter. For purposes of comparison, mixtures A and B were also coated directly onto the wells of a microtiter plate. Samples from HIV-1, HIV-2, and HCV-seropositive donors were tested and compared to sera from seronegative blood donors. A cut-off absorbance value of 0.250 was used to determine whether a reaction was positive or negative. Absorbance values equal or greater than 0.250 were considered positive while absorbance values below this value were considered negative.
A spacer consisting of two glycine residues was added to the amino terminus.

[2] = test system: antibodies in sera from HCV-seropositive donors; assay: ELISA with HCV antibody-positive sera (biotinylated peptides on streptavidin- or avidin-coated plates, unbiotinylated peptides coated directly); details: for PEPTIDE ELISA (O.D.): Table 12, biotinylated 20-mers
Method: as §1, §2, §3, §4, §5
The unbiotinylated peptides were adsorbed onto the wells of polystyrene microtiter plates at a concentration of 3 micrograms per milliliter.
The biotinylated peptides were bound at a concentration of 1 microgram per milliliter to streptavidin-coated microtiter plates. Sera known to contain antibodies to these peptides were used for the evaluation and were tested at a 20-fold dilution.
To investigate further the enhanced antibody recognition of biotinylated HCV peptides bound to streptavidin or avidin as compared to direct adsorption on plastic, the influence of peptide coating concentration was investigated. Three peptides (HCV peptides II, XI, and XVI) were coated in concentrations ranging from 10 nanograms per milliliter to 3 micrograms per milliliter in a volume of 200 microliters per microtiter plate well. For direct coating, the unbiotinylated versions of these peptides were used. The biotinylated versions of these peptides were used to coat wells to which streptavidin had previously been adsorbed. Sera known to contain antibodies to these peptides were used at a dilution of 1 to 100 to evaluate the magnitude of antibody binding.
(§7) Unbiotinylated HCV peptide I was coated directly onto the wells of a polystyrene ELISA plate at a concentration of 3 micrograms per milliliter in sodium carbonate buffer, pH 9.6. Biotinylated HCV peptide I was bound to streptavidin-coated wells using a stock solution containing the peptide at a concentration of 1 microgram per milliliter. The resulting plates were then incubated in parallel with a panel of sera from HCV-seropositive donors. […] Two of the sera (8326 and 8244) recognize the biotinylated version of this peptide far better than the unbiotinylated version. The specificity of the antibody reaction is also reflected by the low optical density values obtained for 5 serum samples from uninfected donors (F88, F89, F76, F136, and F6).
To determine how well biotinylated peptides would function in a mixture when bound to streptavidin- or avidin-coated plates, two mixtures were made of the N-terminally biotinylated versions of the HIV-1 peptides TM-HIV-1 (hereabove referred to as 1a.1) and V3-nm (hereabove referred to as 1b.4), the HIV-2 peptide TM-HIV-2 (hereabove referred to as 2a), and the hepatitis C virus peptides II, IX, and XVIII. […]

[3] = ELISA with seronegative / negative control sera (specificity)
Method: as §1, §2, §3, §4, §5, §7, §6

NNTRRGIHMGWGRTFYATGEIIG [Peptide V3-368, two glycine residues at the amino terminus, N-terminal glycine biotinylated]
number borderline ([1]; African sera, 45 tested): 9 | number negative ([1]; African sera, 45 tested): 31 | number positive ([1]; African sera, 45 tested): 5 | percent borderline ([1]; African sera, 45 tested): 20% | percent negative ([1]; African sera, 45 tested): 69% | percent positive ([1]; African sera, 45 tested): 11% | number borderline ([1]; Brazilian sera, 36 tested): 15 | number negative ([1]; Brazilian sera, 36 tested): 5 | number positive ([1]; Brazilian sera, 36 tested): 16 | percent borderline ([1]; Brazilian sera, 36 tested): 41.7% | percent negative ([1]; Brazilian sera, 36 tested): 13.9% | percent positive ([1]; Brazilian sera, 36 tested): 44.4% | number borderline ([1]; European sera, 36 tested): 20 | number negative ([1]; European sera, 36 tested): 12 | number positive ([1]; European sera, 36 tested): 4 | percent borderline ([1]; European sera, 36 tested): 56% | percent negative ([1]; European sera, 36 tested): 33% | percent positive ([1]; European sera, 36 tested): 11%

RNTNRRPQDVKFPGGGQIVG
optical density (450 nm) ([2]; Table 4D, serum 8241, 20-fold dilution): 2.066 | optical density (450 nm) ([2]; Table 4D, serum 8242, 20-fold dilution): 2.197 | optical density (450 nm) ([2]; Table 4D, serum 8243, 20-fold dilution): 2.368 | optical density (450 nm) ([2]; Table 4D, serum 8247, 20-fold dilution): 2.398 | optical density (450 nm) ([2]; Table 4D, serum 8248, 20-fold dilution): 2.918 | optical density (450 nm) ([2]; Table 4D, serum 8250, 20-fold dilution): 2.626 | optical density (450 nm) ([2]; Table 4D, serum 8271, 20-fold dilution): 2.066 | optical density (450 nm) ([2]; Table 4D, serum 8272, 20-fold dilution): 2.638 | optical density (450 nm) ([2]; Table 4D, serum 8273, 20-fold dilution): 2.697 | optical density (450 nm) ([2]; Table 4D, serum 8274, 20-fold dilution): 2.905 | optical density (450 nm) ([2]; Table 4D, serum 8275, 20-fold dilution): 2.640 | optical density (450 nm) ([2]; Table 4D, serum 8276, 20-fold dilution): 2.674 | optical density (450 nm) ([2]; Table 4D, serum 8277, 20-fold dilution): 2.327 | PEPTIDE ELISA (O.D.) ([2]; serum 0843): 2.368 | PEPTIDE ELISA (O.D.) ([2]; serum 8240): 2.918 | PEPTIDE ELISA (O.D.) ([2]; serum 8241): 2.066 | PEPTIDE ELISA (O.D.) ([2]; serum 8242): 2.197 | PEPTIDE ELISA (O.D.) ([2]; serum 8332): 2.054 | PEPTIDE ELISA (O.D.) ([2]; serum 8339): 2.765 | PEPTIDE ELISA (O.D.) ([2]; serum 8350): 2.135 | PEPTIDE ELISA (O.D.) ([2]; serum 8377): 2.368 | PEPTIDE ELISA (O.D.) ([2]; serum 8378): 2.369 | PEPTIDE ELISA (O.D.) ([2]; serum 8388): 2.463 | optical density (450 nm) ([3]; Table 4D, negative serum): 0.06

SQHLPYIEQGMMLAEQFKQK
optical density (450 nm) ([2]; Table 4A, serum 2, 20-fold dilution): 1.971 | optical density (450 nm) ([2]; Table 4A, serum 3, 20-fold dilution): 2.086 | optical density (450 nm) ([2]; Table 4A, serum 4, 20-fold dilution): 1.976 | optical density (450 nm) ([2]; Table 4A, serum 6, 20-fold dilution): 0.518 | optical density (450 nm) ([2]; Table 4A, serum 8, 20-fold dilution): 2.624 | optical density (450 nm) ([2]; Table 4A, serum 10, 20-fold dilution): 2.321 | optical density (450 nm) ([2]; Table 4A, serum 11, 20-fold dilution): 2.378 | optical density (450 nm) ([2]; Table 4A, serum 23, 20-fold dilution): 2.503 | optical density (450 nm) ([2]; Table 4A, serum 31, 20-fold dilution): 2.104 | optical density (450 nm) ([2]; Table 4A, serum 33, 20-fold dilution): 1.857 | optical density (450 nm) ([2]; Table 4A, serum 49, 20-fold dilution): 2.180 | optical density (450 nm) ([2]; Table 4A, serum 77, 20-fold dilution): 0.159 | PEPTIDE ELISA (O.D.) ([2]; serum 0843): 2.268 | PEPTIDE ELISA (O.D.) ([2]; serum 8240): 0.182 | PEPTIDE ELISA (O.D.) ([2]; serum 8241): 2.280 | PEPTIDE ELISA (O.D.) ([2]; serum 8242): 1.625 | PEPTIDE ELISA (O.D.) ([2]; serum 8332): 0.575 | PEPTIDE ELISA (O.D.) ([2]; serum 8339): 0.043 | PEPTIDE ELISA (O.D.) ([2]; serum 8350): 0.623 | PEPTIDE ELISA (O.D.) ([2]; serum 8377): 2.227 | PEPTIDE ELISA (O.D.) ([2]; serum 8378): 1.449 | PEPTIDE ELISA (O.D.) ([2]; serum 8388): 1.018 | antibody binding to the 20-mers ([2]; serum 8241): very strong | optical density (450 nm) ([3]; Table 4A, negative serum): 0.095

Ac-Tyr-Asn-Lys-Arg-Lys-Arg-Ile-His-Ile-Gly-Pro-Gly-Arg-Ala-Phe-Tyr-Thr-Thr-Lys-Asn-Ile-Ile-Gly-NH2 (Ac-YNKRKRIHIGPGRAFYTTKNIIG-NH2) [Peptide V3-mn]
optical density (450 nm) ([1]; sample 266): 0.951 | optical density (450 nm) ([1]; sample 3990): 1.442 | optical density (450 nm) ([1]; sample 4436): 0.388 | optical density (450 nm) ([1]; sample 4438): 0.736 | optical density (450 nm) ([1]; sample DV): 1.314 | optical density (450 nm) ([1]; sample MM): 0.791 | optical density (450 nm) ([1]; sample OOST 4): 1.106 | optical density (450 nm) ([1]; sample OOST 6): 1.025 | optical density (450 nm) ([1]; sample OOST 8): 1 389 | optical density (450 nm) ([1]; sample PL): 0.531 | optical density (450 nm) ([1]; sample VE): 1.717 | optical density (450 nm) ([1]; sample YS): 1.442 | optical density (450 nm) ([3]; Table 2, negative control): 0.063

H2N-Met-Ser-Thr-Ile-Pro-Lys-Pro-Gln-Arg-Lys-Thr-Lys-Arg-Asn-Thr-Asn-Arg-Arg-Pro-Gln-CONH2 (H-MSTIPKPQRKTKRNTNRRPQ-NH2) [HCV peptide I]
optical density (450 nm) ([2]; Table 7, serum 6378, HCV antibody-positive): 2.161 | optical density (450 nm) ([2]; Table 7, serum 8242, HCV antibody-positive): 1.367 | optical density (450 nm) ([2]; Table 7, serum 8243, HCV antibody-positive): 2.211 | optical density (450 nm) ([2]; Table 7, serum 8244, HCV antibody-positive): 0.077 | optical density (450 nm) ([2]; Table 7, serum 8248, HCV antibody-positive): 2.042 | optical density (450 nm) ([2]; Table 7, serum 8316, HCV antibody-positive): 2.394 | optical density (450 nm) ([2]; Table 7, serum 8318, HCV antibody-positive): 2.385 | optical density (450 nm) ([2]; Table 7, serum 8320, HCV antibody-positive): 2.760 | optical density (450 nm) ([2]; Table 7, serum 8326, HCV antibody-positive): 0.525 | optical density (450 nm) ([2]; Table 7, serum 8329, HCV antibody-positive): 2.633 | optical density (450 nm) ([2]; Table 7, serum 8330, HCV antibody-positive): 1.985 | optical density (450 nm) ([2]; Table 7, serum 8333, HCV antibody-positive): 2.143 | optical density (450 nm) ([2]; Table 7, serum 8334, HCV antibody-positive): 2.271 | optical density (450 nm) ([2]; Table 7, serum 8336, HCV antibody-positive): 1.558 | optical density (450 nm) ([2]; Table 7, serum 8344, HCV antibody-positive): 1.878 | optical density (450 nm) ([2]; Table 7, serum 8364, HCV antibody-positive): 2.705 | optical density (450 nm) ([2]; Table 7, serum 8374, HCV antibody-positive): 1.070 | optical density (450 nm) ([2]; Table 7, serum 8387, HCV antibody-positive): 1.427 | optical density (450 nm) ([3]; Table 7, serum F8, HCV antibody-negative): 0.000 | optical density (450 nm) ([3]; Table 7, serum F76, HCV antibody-negative): 0.000 | optical density (450 nm) ([3]; Table 7, serum F88, HCV antibody-negative): 0.000 | optical density (450 nm) ([3]; Table 7, serum F89, HCV antibody-negative): 0.017 | optical density (450 nm) ([3]; Table 7, serum F136, HCV antibody-negative): 0.006
